Test results from US9611262B2, “Substituted 2-azabicycles and their use as orexin receptor modulators” (JANSSEN PHARMACEUTICA NV, priority 2014, dated 2017).

Key:
[1] = biological target: rat orexin 1 receptor (Rattus norvegicus, UniProt P56718); experiment: Rat orexin 1 receptor radioligand binding (competitive); conditions: HEK293 cells stably expressing rat orexin 1 receptor; 4 nM radioligand; averages of 2-20 runs; read-out: rOX1 Ki
Method: (§1) The in vitro affinity of the compounds of the invention for the rat/human orexin 1 and human orexin 2 receptors was determined by competitive radioligand binding using [^3H](1-(5-(2-fluoro-phenyl)-2-methyl-thiazol-4-yl)-1-((S)-2-(5-phenyl-(1,3,4)oxadiazol-2-ylmethyl)-pyrrolidin-1-yl)-methanone) (Langmead et al., 2004) and [^3H]EMPA (n-ethyl-2[96-methoxy-pyridin-3-yl)-(toluene-2-sulfonyl)-amino]-N-pyridin-3-ylmethyl acetamide), respectively (Langmead et al., 2004, British Journal of Pharmacology 141:340-346; Malherbe et al., 2004, British Journal of Pharmacology 156:1326-41).
(§2) Data are analyzed using pc-Sandy macro and graphed on Graphpad Prism 5. For analysis, each concentration point is averaged from triplicate values and the averaged values are plotted on Graphpad Prism. The IC50 was determined by applying the following equation (GraphPad Prism 5.0, San Diego) for one site competition where X=log (concentration) and Y=specific binding. Top denotes the total [^3H]— (1-(5-(2-fluoro-phenyl)-2-methyl-thiazol-4-yl)-1-((S)-2-(5-phenyl-(1,3,4)oxadiazol-2-ylmethyl)-pyrrolidin-1-yl)-methanone) binding, bottom denotes the nonspecific [^3H]— (1-(5-(2-fluoro-phenyl)-2-methyl-thiazol-4-yl)-1-((S)-2-(5-phenyl-(1,3,4)oxadiazol-2-ylmethyl)-pyrrolidin-1-yl)-methanone) binding. Graphpad Prism calculates Ki value from IC50 and the pre-determined Kd values for [^3H]— (1-(5-(2-fluoro-phenyl)-2-methyl-thiazol-4-yl)-1-((S)-2-(5-phenyl-(1,3,4)oxadiazol-2-ylmethyl)-pyrrolidin-1-yl)-methanone) and [^3H]-EMPA. The Ki for each compound is then uploaded into 3DX. Each run comprises individual compounds in triplicate. The data in Table 1 and Table 2 represent averages from between 2-20 runs
(§3) Rat and Human Orexin 1 Receptor Radioligand Binding Studies
(§4) Human Embryonic Kidney 293 cells (HEK293) stably expressing rat orexin 1 receptor (Genebank accession number NM_001525) or Chinese ovary cells (CHO) stably expressing human orexin 1 receptor (Genebank accession number […]) were grown to confluency in DMEM (Hyclone, cat # SH30022), 10% FBS, 1× Pen/Strep, 1× sodium pyruvate, 10 mM HEPES, 600 μg/mL G418 and DMEM/F12 (Gibco, Cat #11039), 10% FBS, 1× Pen/Strep, 600 μg/mL G418 media, respectively on 150 cm^2 tissue culture plates, washed with 5 mM EDTA in PBS (HyClone Dulbecco's Phosphate Buffered Saline 1× with Calcium and Magnesium, Cat # SH30264.01, hereafter referred to simply as PBS) and scraped into 50 ml tubes. After centrifugation (2K×G, 5 min at 4° C.), the supernatant was aspirated and the pellets frozen and stored at −80° C. Cells were resuspended in PBS in the presence of 1 tablet of protease inhibitor cocktail (Roche, Cat. #11836145001) per 50 mL. […] Competition binding experiments in 96 well polypropylene plates were performed using [^3H]— (1-(5-(2-fluoro-phenyl)-2-methyl-thiazol-4-yl)-1-((S)-2-(5-phenyl-(1,3,4)oxadiazol-2-ylmethyl)-pyrrolidin-1-yl)-methanone) (Moraveck Corporation, specific activity=35.3 Ci/mmol), diluted to a 10 nM concentration in PBS (4 nM final). Compounds were solubilized in 100% DMSO (Acros Organics, Cat. #61042-1000) and tested over a range of 7 concentrations (from 0.1 nM to 10 μM). The final concentration of DMSO in the reactions is equal to or less than 0.1%. Total and nonspecific binding was determined in the absence and presence of 10 μM almorexant. The total volume of each reaction is 200 μL (20 μL of diluted compounds, 80 μL of [^3H]— (1-(5-(2-fluoro-phenyl)-2-methyl-thiazol-4-yl)-1-((S)-2-(5-phenyl-(1,3,4)oxadiazol-2-ylmethyl)-pyrrolidin-1-yl)-methanone) diluted in PBS and 100 μL of the cell suspension). Reactions were run for 60 min at room temperature and terminated by filtration through GF/C filter plates (PerkinElmer, Cat. #6005174) presoaked in 0.3% polyethylenimine using the cell harvester (PerkinElmer Filtermate). The plates were washed 3 times by aspirating 30 ml PBS through the plates. Plates were dried in 55° C. oven for 60 min, scintillation fluid was added, and the radioactivity was counted on a Topcount (Packard). […]

[2] = biological target: human orexin 1 receptor (Homo sapiens (Human), UniProt O43613); experiment: Human orexin 1 receptor radioligand binding (competitive); conditions: CHO cells stably expressing human orexin 1 receptor; 4 nM radioligand; averages of 2-20 runs; read-out: hOX1 Ki
Chain of human orexin 1 receptor (O43613 whole entry): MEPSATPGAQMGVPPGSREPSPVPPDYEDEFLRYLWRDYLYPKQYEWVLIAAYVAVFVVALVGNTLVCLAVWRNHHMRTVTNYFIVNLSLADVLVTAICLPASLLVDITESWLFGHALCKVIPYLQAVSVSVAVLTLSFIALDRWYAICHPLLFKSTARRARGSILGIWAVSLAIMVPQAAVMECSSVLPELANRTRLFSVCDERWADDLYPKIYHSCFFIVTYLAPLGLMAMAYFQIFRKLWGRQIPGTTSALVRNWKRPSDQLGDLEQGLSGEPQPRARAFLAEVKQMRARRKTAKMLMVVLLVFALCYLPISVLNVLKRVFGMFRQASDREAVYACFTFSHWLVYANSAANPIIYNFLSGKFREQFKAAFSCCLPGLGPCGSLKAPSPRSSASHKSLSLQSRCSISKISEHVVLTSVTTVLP
Method: as §1, §2, §3, §4

[3] = biological target: human orexin 2 receptor (Homo sapiens (Human), UniProt O43614); experiment: Human orexin 2 receptor radioligand binding ([3H]-EMPA competition); conditions: HEK293 stably expressing human orexin 2 receptor; 2 nM [3H]-EMPA; averages of 2-20 runs; read-out: hOX2 Ki
Chain of human orexin 2 receptor (O43614 whole entry): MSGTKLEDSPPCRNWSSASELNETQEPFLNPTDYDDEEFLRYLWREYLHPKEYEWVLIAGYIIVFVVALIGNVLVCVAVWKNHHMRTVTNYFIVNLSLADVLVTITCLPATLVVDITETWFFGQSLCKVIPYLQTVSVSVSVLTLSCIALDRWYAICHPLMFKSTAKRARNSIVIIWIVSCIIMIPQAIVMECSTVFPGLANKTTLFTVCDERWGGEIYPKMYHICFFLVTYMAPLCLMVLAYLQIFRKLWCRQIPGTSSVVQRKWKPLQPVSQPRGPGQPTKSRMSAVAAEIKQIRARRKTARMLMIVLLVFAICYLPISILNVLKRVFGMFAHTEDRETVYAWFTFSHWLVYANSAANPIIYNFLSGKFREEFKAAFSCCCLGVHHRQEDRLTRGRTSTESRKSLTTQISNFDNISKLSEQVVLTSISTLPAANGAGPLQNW
In short: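 Membranes-free whole HEK293 cells stably expressing human OX2 receptor incubated with [3H]-EMPA and compound (7 concentrations, 0.1 nM–10 μM, ≤0.1% DMSO) for 60 min at room temperature; nonspecific binding with 10 μM almorexant. Filtration and scintillation counting; one-site IC50 converted to Ki using predetermined Kd, triplicates averaged over 2-20 runs.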

Q: Which results are given for CC1C2CC(Oc3ccc(C(F)(F)F)cn3)C(C2)N1C(=O)c1ccccc1-c1ncc(F)cn1 (single isomer, unassigned) [Example 19B, (2-(5-fluoropyrimidin-2-yl)phenyl)((1S*,3R*,4R*,6R*)-3-methyl-6-((5-(trifluoromethyl)pyridin-2-yl)oxy)-2-azabicyclo[2.2.1]heptan-2-yl)methanone]?
A: Ki [1]: 5 nM; Ki [2]: 6 nM

Q: Which results are given for C[C@@H]1[C@H]2C[C@@H](Oc3ccc(C(F)(F)F)cn3)[C@H](C2)N1C(=O)c1cccc(F)c1-n1nccn1 (relative stereo) [Example 27, (3-fluoro-2-(2H-1,2,3-triazol-2-yl)phenyl)((1S*,3R*,4R*,6R*)-3-methyl-6-((5-(trifluoromethyl)pyridin-2-yl)oxy)-2-azabicyclo[2.2.1]heptan-2-yl)methanone]?
A: Ki [1]: 5 nM; Ki [2]: 8 nM; Ki [3]: 595 nM

Q: What does the source list for Cc1ccc(-n2nccn2)c(C(=O)N2[C@H](CO)[C@@H]3CC[C@H]2[C@H](Oc2ccc(C(F)(F)F)cn2)C3)n1 [Example 176, [(1R,2S,4S,5R)-2-(hydroxymethyl)-5-[[5-(trifluoromethyl)-2-pyridyl]oxy]-3-azabicyclo[2.2.2]octan-3-yl]-[6-methyl-3-(triazol-2-yl)-2-pyridyl]methanone]?
A: Ki [1]: 33 nM; Ki [2]: 35 nM; Ki [3]: 8100 nM

Q: Which Ki [1] does the source give for Cc1cnc(C(=O)N2[C@H](C)[C@H]3C[C@@H](Oc4ccc(C(F)(F)F)cn4)[C@@H]2C3)c(-c2ncccn2)c1 (relative stereo) [Example 35, (5-methyl-3-(pyrimidin-2-yl)pyridin-2-yl)((1S*,3R*,4R*,6R*)-3-methyl-6-((5-(trifluoromethyl)pyridin-2-yl)oxy)-2-azabicyclo[2.2.1]heptan-2-yl)methanone] here?
A: 4 nM

Q: And the Ki [2]?
A: 7 nM

Q: What does the source list for COc1ccc(C(=O)N2[C@H](C)[C@H]3C[C@@H](Oc4ccc(C(F)(F)F)cn4)[C@@H]2C3)c(-n2nccn2)c1 (relative stereo) [Example 31, (4-methoxy-2-(2H-1,2,3-triazol-2-yl)phenyl)((1S*,3R*,4R*,6R*)-3-methyl-6-((5-(trifluoromethyl)pyridin-2-yl)oxy)-2-azabicyclo[2.2.1]heptan-2-yl)methanone]?
A: Ki [1]: 6 nM; Ki [2]: 6 nM

Q: CC1C2CC(Nc3cnc(C(F)(F)F)cn3)C(C2)N1C(=O)c1cccc(F)c1-c1ncccn1 (single isomer, unassigned) [Example 4, (R/S)-(3-fluoro-2-(pyrimidin-2-yl)phenyl)(3-methyl-6-((5-(trifluoromethyl)pyrazin-2-yl)amino)-2-azabicyclo[2.2.1]heptan-2-yl)methanone] was tested. Which Ki [1] did it give?
A: 56 nM

Q: And the Ki [2]?
A: 59 nM

Q: For Cc1ccc(-c2ncccn2)c(C(=O)N2C(C)C3CC(Oc4cnc(C(F)(F)F)cn4)C2C3)n1 (racemic) [Example 44, (R/S)-(6-methyl-3-(pyrimidin-2-yl)pyridin-2-yl)(3-methyl-6-((5-(trifluoromethyl)pyrazin-2-yl)oxy)-2-azabicyclo[2.2.1]heptan-2-yl)methanone], which Ki [1] is on record?
A: 71 nM

Q: What about the Ki [2] of the same compound?
A: 55 nM

Q: How did the Ki [1] turn out when [2H]C1([2H])[C@H]2C[C@@H]([C@@H]1Oc1ccc(Cl)cn1)N(C(=O)c1ccccc1-n1nccn1)[C@@H]2C [Example 195, [(1R,3R,4S,6R)-3-[(5-chloro-2-pyridyl)oxy]-2,2-dideuterio-6-methyl-5-azabicyclo[2.2.1]heptan-5-yl]-[2-(triazol-2-yl)phenyl]methanone] was run?
A: 8 nM

Q: What about the Ki [2] of the same compound?
A: 4 nM

Q: Which results are given for CC1C2CC(Oc3ccc(C(F)(F)F)cn3)C(C2)N1C(=O)c1ccccc1-c1ncc(F)cn1 (racemic) [Example 19, (R/S)-(2-(5-fluoropyrimidin-2-yl)phenyl)(3-methyl-6-((5-(trifluoromethyl)pyridin-2-yl)oxy)-2-azabicyclo[2.2.1]heptan-2-yl)methanone]?
A: Ki [1]: 10 nM; Ki [2]: 29 nM

Q: What does the source list for C[C@@H]1[C@H]2C[C@@H](Oc3ccc(C(F)(F)F)cn3)[C@H](C2)N1C(=O)c1ccc(F)cc1-n1nccn1 (relative stereo) [Example 28, (4-fluoro-2-(2H-1,2,3-triazol-2-yl)phenyl)((1S*,3R*,4R*,6R*)-3-methyl-6-((5-(trifluoromethyl)pyridin-2-yl)oxy)-2-azabicyclo[2.2.1]heptan-2-yl)methanone]?
A: Ki [1]: 6 nM; Ki [2]: 5 nM

Q: What does the source list for C[C@@H]1[C@H]2C[C@@H](Oc3cnc4ccccc4n3)[C@H](C2)N1C(=O)c1cccc(F)c1-n1nccn1 (relative stereo) [Example 184, (3-fluoro-2-(2H-1,2,3-triazol-2-yl)phenyl)((1S*,3R*,4R*,6R*)-3-methyl-6-(quinoxalin-2-yloxy)-2-azabicyclo[2.2.1]heptan-2-yl)methanone]?
A: Ki [1]: 4 nM; Ki [2]: 2 nM

Q: CC(C)CC1C2CC(Oc3ccc(C(F)(F)F)cn3)C(C2)N1C(=O)c1ccccc1-n1nccn1 (racemic) [Example 207, (R/S)-[2-isobutyl-5-[[5-(trifluoromethyl)-2-pyridyl]oxy]-3-azabicyclo[2.2.1]heptan-3-yl]-[2-(triazol-2-yl)phenyl]methanone] was tested. Which Ki [1] did it give?
A: 51 nM

Q: And the Ki [2]?
A: 45 nM

Q: Which Ki [1] does the source give for CC1C2CC(Nc3cnc(C(F)(F)F)cn3)C(C2)N1C(=O)c1cccc(F)c1-c1ncccn1 (single isomer, unassigned) [Example 67, (R/S)-(3-fluoro-2-(pyrimidin-2-yl)phenyl)(3-methyl-6-((5-(trifluoromethyl)pyrazin-2-yl)amino)-2-azabicyclo[2.2.1]heptan-2-yl)methanone] here?
A: 16 nM

Q: What about the Ki [2] of the same compound?
A: 21 nM

Q: Which Ki [1] does the source give for CCC1C2CC(Oc3ccc(C(F)(F)F)cn3)C(C2)N1C(=O)c1ccccc1-n1nccn1 (racemic) [Example 213, (R/S)-[2-ethyl-5-[[5-(trifluoromethyl)-2-pyridyl]oxy]-3-azabicyclo[2.2.1]heptan-3-yl]-[2-(triazol-2-yl)phenyl]methanone] here?
A: 4 nM

Q: What about the Ki [2] of the same compound?
A: 2 nM

Q: Which results are given for C[C@@H]1[C@H]2C[C@@H](Oc3ccc(Cl)cn3)[C@H](C2)N1C(=O)c1ccccc1-n1nccn1 [Example 121, [(1R,2R,4S,5R)-5-[(5-chloro-2-pyridyl)oxy]-2-methyl-3-azabicyclo[2.2.1]heptan-3-yl]-[2-(triazol-2-yl)phenyl]methanone]?
A: Ki [1]: 3 nM; Ki [2]: 3 nM

Q: CC1C2CC(Oc3ccc(C(F)(F)F)cn3)C(C2)N1C(=O)c1cccc(F)c1-c1ncco1 (racemic) [Example 12, (R/S)-(3-fluoro-2-(oxazol-2-yl)phenyl)(3-methyl-6-((5-(trifluoromethyl)pyridin-2-yl)oxy)-2-azabicyclo[2.2.1]heptan-2-yl)methanone] was tested. Which Ki [1] did it give?
A: 8 nM

Q: And the Ki [2]?
A: 8 nM
